Data set [1] is described as follows: Cmax in healthy human lung epithelial lining fluid at 200 mg, po every 12 hrs for 5 days. The class given is ADME, organism-based. More on the design: dose 200 mg, route oral.
For data set [2], the system named is Plasma. As to the kind of experiment: Cmax in healthy human plasma assessed as hydroxyitraconazole at 200 mg, po every 12 hrs for 5 days. The class given is ADME, organism-based. More on the design: dose 200 mg, route oral. The following applies: in vivo.
Data set [3] in a line: Cmax in healthy human alveolar cell assessed as hydroxyitraconazole at 200 mg, po every 12 hrs for 5 days. The class given is ADME, organism-based, Lung, Pneumocyte. Details: dose 200 mg, route oral. The conditions noted are these: in vivo.
Data set [4] relates to Plasma. Kind of data set: AUC (0 to 24 hrs) in healthy human plasma assessed as hydroxyitraconazole at 200 mg, po every 12 hrs for 5 days. Type of data set: ADME, organism-based. Details: time < 24 hr, dose 200 mg, route oral. The conditions noted are these: in vivo.
Data set [5] in a line: AUC (0 to 24 hrs) in healthy human lung epithelial lining fluid assessed as hydroxyitraconazole at 200 mg, po every 12 hrs for 5 days. Type of data set: ADME, organism-based. More on the design: dose 200 mg, time < 24 hr, route oral. The following applies: in vivo.
Data set [6] is described as follows: AUC (0 to 24 hrs) in healthy human alveolar cell assessed as hydroxyitraconazole at 200 mg, po every 12 hrs for 5 days. Type of data set: ADME, organism-based, Pneumocyte. Details: time < 24 hr, dose 200 mg, route oral. The following applies: in vivo.

Structures are written as SMILES.

With `CC(O)C(C)n1ncn(-c2ccc(N3CCN(c4ccc(OCC5COC(Cn6cncn6)(c6ccc(Cl)cc6Cl)O5)cc4)CC3)cc2)c1=O` (stereo unspecified) [HYDROXYITRACONAZOLE], the results for the Cmax in data set [1], in data set [2] and in data set [3] were 3300 ng/mL, 1000 ng/mL and 6600 ng/mL, respectively. In addition, the AUC came to 60200 ng·h/mL in data set [4], 18900 ng·h/mL in data set [5] and 134000 ng·h/mL in data set [6].
